Measured values published in patent US9434670B2, “Family of aryl, heteroaryl, O-aryl and O-heteroaryl carbasugars” (TFCHEM, priority 2011, dated 2016).
Values after ≈ are worked out from the molar mass of the structure shown.

Key:
[1] = system: β-glucosidase from Almonds; assay: Enzymatic stability against glycosidase, HPLC analysis after incubation with β-glucosidase; type: in vitro ADME; conditions: 4 h at 37° C., phosphate buffer pH 7, 10 U β-glucosidase
Source text: The enzymatic stability assay has been performed with compound 26 according to the invention and compound A used as a reference compound to control the efficacy of the β-glucosidase. The sergliflozin-A stability has also been evaluated in order to compare the improvement of metabolic stability obtained through the replacement of the intracyclic oxygen atom of the glucose moiety by a CF2 moiety.
All the compounds have been treated with β-glucosidase. The stability of compound 26 and Sergliflozin-A has been assessed by HPLC analysis after incubation with β-glucosidase.
A Gilson HPLC system was used, equipped with a manual injection system (V=20 μL), a Diode Array Detector (DAD172) set at a wavelength of 230 nm and a 150 mm×4.6 mm, 5 μm HICHROM Kromasil 100-5C18 reverse phase column. A linear HPLC binary gradient was used as follows: solvent A was water and solvent B was acetonitrile. Following the injection of 20 μL of a sample, solvent B was held at 20% for 3 min, increased from 20% to 90% in 17 min, held at 90% for 4 min; finally, solvent B was decreased back to 20% over 5.5 min and was held at 20% for 3.5 min.
The procedure has been adapted from J. Agric. Food Chem. 2005, 53, 4918-4924.
100 μL of a solution of compound 26 at 4.5·10^−4 mol·L^−1 in acetonitrile was added to a solution containing 800 μL of phosphate buffer (73173 Fluka, pH 7) in the presence of β-glucosidase from Almonds (10 U, 100 μL of a 5.6 mg·mL^−1 solution in phosphate buffer, (G4511sigma 18.7 U per mg)) and was kept 4 h at 37° C.
100 μL of a solution of sergliflozin-A at 4.5·10^−4 moL·L^−1 in acetonitrile has been treated in the presence of β-glucosidase following the same process.
In parallel, 100 μL of a solution of p-nitrophenyl-β-glucoside (compound A) at 4.5·10^−4 mol·L^−1 in phosphate buffer (73173 Fluka, pH 7) was added to a solution containing 700 μL of phosphate buffer and 100 μL of acetonitrile, with the presence of β-glucosidase from Almonds (10 U, 100 μL of a 5.6 mg·mL^−1 solution in phosphate buffer, (G4511 sigma 18.7 U per mg)) and was kept 4 h at 37° C. During the process in the presence of β-glucosidase, a yellow coloration was observed that underlines the decomposition of compound. A.
HPLC of compound 21 (FIG. 7), compound 26 (FIG. 8) and Sergliflozin-A (FIG. 10) have been performed to follow up in the experiments the formation of compound 21 (the aglycone part) implying a degradation of the starting material.
In order to evaluate the percentage of degradation, a calibration has been done on compound 21 giving the following results:
Data have been plotted (Area % versus concentration) and the linear regression obtained was characterized by the equation y=53629x and a R^2=0.994. […]

[2] = system: Mushroom Tyrosinase; assay: Inhibition of Tyrosine-Tyrosinase reaction, absorbance at 477 nm (assay e); type: biochemical; conditions: test compound n = 5·10^−5 mol; Solution A 1 mL, Solution B 0.5 mL, buffer 0.5 mL; witness solution 0.4354
Experimental: Inhibition of tyrosinase, i.e. inhibition of the hydroxylation of Tyrosine into DOPA, was measured by visible spectrophotometry, and more specifically by measuring the absorbance at 477 nm, indicative of the amount of melanine produced in vitro from the Tyrosine substrate by Tyrosinase. In order to make sure that the measured absorbance is proportional to the enzymatic activity in the range of studied concentrations, five standard solutions were prepared as follows. Absorbance has been measured on a Perkin Elmer UV/Vis Spectrometer Lambda 12. Solution A (1,000 U/mL mother solution of Tyrosinase) was prepared by dissolving 40 mg of 1,250 U/mg Mushroom Tyrosinase in 1 mL 100 mM pH6.5 bis Tris buffer and QS to 50 mL with milliQ water. Bis Tris buffer (100 mM pH6.5 bis Tris buffer) was prepared by dissolving 2.09 g of Bis Tris in milliQ water and QS to 100 mL. Solution B (mother solution of Tyrosine) was prepared by dissolving 100 mg of Tyrosine in milliQ water and QS to 100 mL. The standard solutions were incubated for 2 h at 37° C., then quickly cooled to 4° C. […] The following test solutions were prepared and their absorbance was measured at 477 nm: […]

[3] = target: Mushroom Tyrosinase; assay: Tyrosinase inhibition, concentration series and IC50 (assay f); type: biochemical; conditions: for IC50: Concentration Tyrosinase 100 U/mL, from linear regression of % activity versus concentration; for Absorbance (477 nm): 1 h 30 at 37° C.; for % activity: witness solution = 100%
Experimental: The protocol performed is the same as in assay e. Solution A (1,000 U/mL mother solution of Tyrosinase) was prepared by dissolving all of 50 kU Mushroom Tyrosinase in 1 mL 100 mM pH6.5 bis Tris buffer and QS to 50 mL with milliQ water. Bis Tris buffer (100 mM pH6.5 bis Tris buffer) was prepared by dissolving 2.09 g of Bis Tris in milliQ water and QS to 100 mL. pH was adjusted at 6.5 using hydrochloric acid. Solution B (mother solution of Tyrosine) was prepared by dissolving 20 mg of Tyrosine in milliQ water and QS to 20 mL. Stock solution of compound 31 was prepared as follow: 10 mg of compound 31 was dissolved in Bis Tris buffer up to 1 ml. Stock solution of β-arbutin was prepared as follow: 20 mg of compound β-arbutin was dissolved in Bis Tris buffer up to 1 ml. The solutions were incubated for 1 h 30 at 37° C., then quickly cooled to 4° C. 100 μL of each solution were deposited on 96-well plate. The absorbance of the different solutions were measured at 477 nm (Molecular Devices: Spectra Max 340PC). The different solutions were prepared as described in the different tables below and their absorbances were reported. The absorbance of witness solution (without inhibitor) was set at 100% of enzymatic activity, allowing us to determine the percentage of enzymatic activity of the different solutions. Data have been plotted (% of activity versus concentration of inhibitors) and the linear regression of the curve was used to calculate the […] of both compounds.

[4] = system: female CD1 mice; assay: Facilitatory effect on urinary glucose excretion after oral administration; type: in vivo; conditions: 3 mg/kg po
Experimental: As experimental animal, female CD1 mice (CDM or Charles River) were used. A test compound was dissolved in the vehicle (5% N-methyl pyrrolidone, 20% PEG 400, 75% 20 mM Na4P2O7 buffer, v/v/v) at the concentration of 1 mg/mL After the body weights of the mice were measured and the mice randomized, the test article was orally administered at the dose of 1 mg/kg, 3 mg/kg and 10 mg/kg. For control, just the vehicle (5% N-methyl pyrrolidone, 20% PEG 400, 75% 20 mM Na4P2O7 buffer, v/v/v) was orally administered. The oral administration was performed with gastric tube for mice and a 1 mL syringe. The minimum count in one group was 3 but could reach 12 for some groups. Collection of the urine was performed manually by gentling massaging the abdomen in order to collect urine (3 μL) via a calibrated pipette. Urine was collected at 1, 2, 4, 6, 8 and then 16, 18, 20, 22, 24, 26 and 28 hrs. The urine glucose concentration was measured using a WAKO glucose kit as follows: 3 μL of urine was deposited into a 96-well micro plate for spectrometric readout. The urine aliquot was diluted with 350 μL of the WAKO working solution. […] The absorbance of the 96-well plates were then read at 505 nm using a BioTek SynergyMX plate fluorometer/absorbance photometer and the glucose concentration was calculated. […]

[5] = system: 18 hrs fasted female CD1 mice; assay: Decrease of blood glucose excursions following oral glucose challenge (oral glucose tolerance test); type: in vivo
Experimental: As experimental animal, 18 hrs fasted female CD1 mice (CDM or Charles River) were used. A test compound was dissolved in the vehicle (5% N-methyl pyrrolidone, 20% PEG 400, 75% 20 mM Na4P2O7 buffer, v/v/v) at the concentration of 1 mg/mL. After the body weights of the mice were measured and the mice randomized, the test article was orally administered at the dose of 1 mg/kg, 3 mg/kg and 10 mg/kg. For control, just the vehicle (5% N-methyl pyrrolidone, 20% PEG 400, 75% 20 mM Na4P2O7 buffer, v/v/v) was orally administered. 15 min after this oral administration, a 20% glucose solution in deionised water was orally administered to all mice. The oral administration was performed with gastric tube for mice and a 1 mL syringe. The minimum count in one group was 3 but could reach 5 for some groups. Collection of the blood was performed via the saphenous vein. Blood was collected at 5, 10, 30, 45, 60 and 120 min post glucose challenge. One experiment consisted in administrating the test article 18 hrs prior to a glucose challenge i.e. 18 hrs post po of test article. The blood glucose concentration was measured using Johnson and Johnson's OneTouch® Ultra Blood Glucose Monitoring System. The glucose concentrations for controls and test articles at the different time points were averaged using Excel 2007 and plotted using GraphPad Prism 5.

[6] = Inhibitor Concentration 0.17 mg/mL
[7] = Inhibitor Concentration 0.33 mg/mL
[8] = Inhibitor Concentration 0.50 mg/mL
[9] = Inhibitor Concentration 0.67 mg/mL
[10] = Inhibitor Concentration 0.83 mg/mL
[11] = Inhibitor Concentration 1.33 mg/mL
[12] = Inhibitor Concentration 2.00 mg/mL
[13] = Inhibitor Concentration 2.67 mg/mL
[14] = Inhibitor Concentration 3.33 mg/mL

SMILES: COc1ccc(Cc2ccccc2O[C@H]2[C@H](O)[C@@H](O)[C@H](O)[C@@H](CO)C2(F)F)cc1 [Compound 26]
- degradation in the presence of β-glucosidase (in words) [1]: no degradation occurs

SMILES: OC[C@@H]1[C@@H](O)[C@H](O)[C@@H](O)[C@H](Oc2ccc(O)cc2)C1(F)F [Compound 31]
- Absorbance (477 nm) [2]: 0.1292
- IC50 [3]: 328 µg/mL (≈ 1070 µM)
- Absorbance (477 nm) [3, 6]: 0.5855
- % activity [3, 6]: 81.55%
- Absorbance (477 nm) [3, 7]: 0.3535
- % activity [3, 7]: 49.23%
- Absorbance (477 nm) [3, 8]: 0.255
- % activity [3, 8]: 35.52%
- Absorbance (477 nm) [3, 9]: 0.220
- % activity [3, 9]: 30.57%
- Absorbance (477 nm) [3, 10]: 0.200
- % activity [3, 10]: 27.86%

SMILES: OC[C@H]1O[C@@H](Oc2ccc(O)cc2)[C@H](O)[C@@H](O)[C@@H]1O [β-Arbutin]
- IC50 [3]: 1100 µg/mL (≈ 4040 µM)
- Absorbance (477 nm) [3, 9]: 0.5010
- % activity [3, 9]: 66.62%
- Absorbance (477 nm) [3, 11]: 0.3040
- % activity [3, 11]: 40.43%
- Absorbance (477 nm) [3, 12]: 0.2380
- % activity [3, 12]: 31.65%
- Absorbance (477 nm) [3, 13]: 0.2035
- % activity [3, 13]: 27.06%
- Absorbance (477 nm) [3, 14]: 0.1970
- % activity [3, 14]: 26.20%

SMILES: Oc1ccc(O)cc1 [Hydroquinone]
- Absorbance (477 nm) [2]: 0.1528

SMILES: CCOc1ccc(Cc2cc([C@H]3[C@H](O)[C@@H](O)[C@H](O)[C@@H](CO)[C@@H]3O)ccc2Cl)cc1 [compound 9 of WO 2009/1076550]
- glucosuria detected in the same time period (up to 24 hrs) ([4]; 16 to 28 hours after administration (FIG. 6)): none could be detected

SMILES: CCOc1ccc(Cc2cc([C@H]3[C@H](O)[C@@H](O)[C@H](O)[C@@H](CO)C3(F)F)ccc2Cl)cc1 [Compound 16]
- duration of glucosuria ([4]; compared to Dapagliflozin (FIG. 5)): > 24 h
- blood glucose excursions following glucose challenge ([5]; 3 mg/kg po administered 18 hrs prior to glucose challenge (FIG. 4)): still reduced blood glucose excursions
- blood glucose levels following glucose challenge ([5]; 1, 3 and 10 mg/kg po, normal mice, glucose 15 min after dosing (FIG. 3)): reduced blood glucose levels in a dose-dependent manner

SMILES: O=[N+]([O-])c1ccc(O[C@@H]2O[C@H](CO)[C@@H](O)[C@H](O)[C@H]2O)cc1 [compound A, p-nitrophenyl-β-glucoside]
- degradation in the presence of β-glucosidase (in words) [1]: decomposition
